What was measured:
Integrin alpha-V/beta-3 [1] = target: T1, Integrin alpha-V/beta-3 (Homo sapiens, UniProt P05106+P06756); experiment: Antagonist activity at alphavbeta3 integrin receptor (unknown origin) by cell-free ELISA; type: protein-complex assay
Integrin alpha-V/beta-5 [2] = target: T2, Integrin alpha-V/beta-5 (Homo sapiens, UniProt P06756+P18084); experiment: Antagonist activity at alphavbeta5 integrin receptor (unknown origin) by cell-free ELISA; type: protein-complex assay
[3] = target: Integrin alpha-IIb/beta-3 (Homo sapiens, UniProt P05106+P08514); experiment: Antagonist activity at alpha2bbeta3 integrin receptor (unknown origin) by cell-free ELISA; type: protein-complex assay
[4] = target: Integrin alpha-V/beta-5 (Homo sapiens) [+]; experiment: Antagonist activity at alphavbeta5 integrin receptor in HEK293 cells after 4 hrs using p-nitrophenyl phosphate by colorimetry
Integrin alpha-V/beta-6 = Integrin alpha-V/beta-6 (Homo sapiens, UniProt P06756+P18564); experiment: Antagonist activity at alphavbeta6 integrin receptor in human HT29 cells after 4 hrs using p-nitrophenyl phosphate by colorimetry; type: cell-based, HT-29
Integrin alpha-V/beta-1 [5] = target: T3, Integrin alpha-V/beta-1 (Homo sapiens, UniProt P05556+P06756); experiment: Antagonist activity at alphavbeta1 integrin receptor in HEK293 cells after 4 hrs using p-nitrophenyl phosphate by colorimetry; type: cell-based
Integrin alpha-5/beta-1 [6] = target: T4, Integrin alpha-5/beta-1 (Homo sapiens, UniProt P05556+P08648); experiment: Antagonist activity at alpha5beta1 integrin receptor in K562 cells after 4 hrs using p-nitrophenyl phosphate by colorimetry; type: cell-based
Integrin alpha-V/beta-8 = Integrin alpha-V/beta-8 (Homo sapiens, UniProt P06756+P26012); experiment: Antagonist activity at human recombinant alphavbeta8 integrin receptor expressed in HEK293 cells after 4 hrs using p-nitrophenyl phosphate by colorimetry; type: cell-based
Integrin alpha-V/beta-3 [7] = target: T1, Integrin alpha-V/beta-3; experiment: Antagonist activity at alphavbeta3 integrin receptor in HEK293 cells after 4 hrs using p-nitrophenyl phosphate by colorimetry; type: cell-based
Integrin alpha-V/beta-3 [8] = target: T1, Integrin alpha-V/beta-3; experiment: Antagonist activity at alphavbeta3 integrin receptor (unknown origin) by cell-based ELISA
Integrin alpha-V/beta-3 [9] = target: T5, Integrin alpha-V/beta-3 (Mus musculus, UniProt O54890+P43406); experiment: Antagonist activity at mouse endothelial alphavbeta3 integrin receptor by cell adhesion assay; type: protein-complex assay
T5 sequence (O54890 whole entry): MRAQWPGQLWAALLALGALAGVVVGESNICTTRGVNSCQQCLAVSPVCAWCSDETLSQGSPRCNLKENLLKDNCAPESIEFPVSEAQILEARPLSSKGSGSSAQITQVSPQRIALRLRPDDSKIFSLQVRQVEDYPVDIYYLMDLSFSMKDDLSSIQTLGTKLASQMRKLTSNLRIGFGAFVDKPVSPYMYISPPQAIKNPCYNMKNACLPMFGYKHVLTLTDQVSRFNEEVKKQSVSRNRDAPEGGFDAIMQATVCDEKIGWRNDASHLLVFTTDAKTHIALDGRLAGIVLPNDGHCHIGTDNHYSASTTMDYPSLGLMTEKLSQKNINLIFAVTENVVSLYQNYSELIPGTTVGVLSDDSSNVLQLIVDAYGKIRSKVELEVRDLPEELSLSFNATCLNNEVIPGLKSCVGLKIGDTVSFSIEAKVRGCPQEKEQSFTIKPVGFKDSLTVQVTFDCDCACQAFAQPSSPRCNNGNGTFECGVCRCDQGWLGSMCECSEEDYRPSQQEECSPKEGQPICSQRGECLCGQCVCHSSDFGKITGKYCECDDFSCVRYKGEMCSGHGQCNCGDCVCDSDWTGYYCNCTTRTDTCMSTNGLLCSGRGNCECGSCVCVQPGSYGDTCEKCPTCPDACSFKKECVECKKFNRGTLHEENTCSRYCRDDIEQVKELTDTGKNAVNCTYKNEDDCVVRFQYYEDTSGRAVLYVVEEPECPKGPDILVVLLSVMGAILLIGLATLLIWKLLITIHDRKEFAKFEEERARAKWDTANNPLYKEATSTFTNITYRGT
T5 sequence (P43406 whole entry): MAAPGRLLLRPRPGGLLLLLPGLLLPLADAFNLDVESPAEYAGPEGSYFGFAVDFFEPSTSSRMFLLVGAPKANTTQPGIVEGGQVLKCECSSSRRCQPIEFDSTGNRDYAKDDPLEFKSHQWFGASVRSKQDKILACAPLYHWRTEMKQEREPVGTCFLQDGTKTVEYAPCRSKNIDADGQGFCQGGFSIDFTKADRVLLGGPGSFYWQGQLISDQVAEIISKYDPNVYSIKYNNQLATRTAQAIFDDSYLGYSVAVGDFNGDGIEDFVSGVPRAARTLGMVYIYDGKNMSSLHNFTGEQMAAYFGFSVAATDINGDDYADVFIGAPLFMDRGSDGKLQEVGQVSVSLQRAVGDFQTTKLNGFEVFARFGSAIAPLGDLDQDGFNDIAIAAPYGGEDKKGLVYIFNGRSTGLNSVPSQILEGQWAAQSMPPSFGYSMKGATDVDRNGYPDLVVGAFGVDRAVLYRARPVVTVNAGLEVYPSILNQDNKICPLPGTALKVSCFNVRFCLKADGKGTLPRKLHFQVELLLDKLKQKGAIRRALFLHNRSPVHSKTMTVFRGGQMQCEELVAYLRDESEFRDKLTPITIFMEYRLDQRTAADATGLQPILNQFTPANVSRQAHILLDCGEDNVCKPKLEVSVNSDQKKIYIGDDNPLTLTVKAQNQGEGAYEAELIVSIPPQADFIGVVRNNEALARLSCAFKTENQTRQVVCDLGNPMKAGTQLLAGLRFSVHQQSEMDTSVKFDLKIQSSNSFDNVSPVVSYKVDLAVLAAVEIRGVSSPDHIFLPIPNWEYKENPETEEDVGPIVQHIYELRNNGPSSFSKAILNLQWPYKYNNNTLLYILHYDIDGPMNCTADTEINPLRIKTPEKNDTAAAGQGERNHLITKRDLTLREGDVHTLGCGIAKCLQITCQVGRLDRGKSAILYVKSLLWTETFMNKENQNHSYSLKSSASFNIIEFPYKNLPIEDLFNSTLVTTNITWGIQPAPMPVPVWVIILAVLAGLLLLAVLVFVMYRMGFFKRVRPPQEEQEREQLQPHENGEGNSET

[10] = target: T6, Integrin alpha-IIb/beta-3 (Mus musculus, UniProt O54890+Q9QUM0); experiment: Antagonist activity at mouse endothelial alpha2bbeta3 integrin receptor by cell adhesion assay; type: protein-complex assay
T6 sequence (Q9QUM0 whole entry): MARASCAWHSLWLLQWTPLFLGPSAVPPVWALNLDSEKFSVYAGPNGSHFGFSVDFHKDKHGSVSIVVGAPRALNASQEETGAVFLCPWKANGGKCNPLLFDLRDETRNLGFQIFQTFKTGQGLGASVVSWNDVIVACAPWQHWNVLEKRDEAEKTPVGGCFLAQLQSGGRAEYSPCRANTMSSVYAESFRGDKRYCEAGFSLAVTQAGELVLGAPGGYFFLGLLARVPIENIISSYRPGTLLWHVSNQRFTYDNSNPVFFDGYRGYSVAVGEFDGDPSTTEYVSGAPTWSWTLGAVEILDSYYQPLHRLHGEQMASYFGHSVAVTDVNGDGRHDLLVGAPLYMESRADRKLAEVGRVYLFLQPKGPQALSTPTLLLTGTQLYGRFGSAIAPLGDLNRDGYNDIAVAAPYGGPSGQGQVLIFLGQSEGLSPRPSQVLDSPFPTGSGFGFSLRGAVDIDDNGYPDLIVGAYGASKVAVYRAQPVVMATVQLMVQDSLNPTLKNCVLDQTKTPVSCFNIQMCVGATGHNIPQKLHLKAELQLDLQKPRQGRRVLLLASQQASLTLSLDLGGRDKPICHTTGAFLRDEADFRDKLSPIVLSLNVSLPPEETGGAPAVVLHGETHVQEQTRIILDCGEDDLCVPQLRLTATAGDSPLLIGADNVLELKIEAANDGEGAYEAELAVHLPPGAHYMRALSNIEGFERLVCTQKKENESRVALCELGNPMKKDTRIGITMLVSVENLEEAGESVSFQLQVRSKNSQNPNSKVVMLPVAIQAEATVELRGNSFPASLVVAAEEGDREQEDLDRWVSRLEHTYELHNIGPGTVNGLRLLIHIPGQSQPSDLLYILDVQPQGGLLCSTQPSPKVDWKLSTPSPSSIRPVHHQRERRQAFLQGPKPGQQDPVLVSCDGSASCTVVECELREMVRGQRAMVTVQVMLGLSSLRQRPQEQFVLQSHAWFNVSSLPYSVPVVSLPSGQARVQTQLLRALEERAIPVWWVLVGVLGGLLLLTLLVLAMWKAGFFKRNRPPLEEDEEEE
T6 sequence (O54890 whole entry): T5 sequence (O54890 whole entry)

Integrin alpha-5/beta-1 [11] = target: T4, Integrin alpha-5/beta-1; experiment: Antagonist activity at alpha5beta1 integrin receptor (unknown origin) by cell-free ELISA; type: protein-complex assay
Integrin alpha-V/beta-5 [12] = target: T2, Integrin alpha-V/beta-5; experiment: Antagonist activity at alphavbeta5 integrin receptor (unknown origin) by cell-based ELISA
Integrin alpha-5/beta-1 [13] = target: T4, Integrin alpha-5/beta-1; experiment: Antagonist activity at alpha5beta1 integrin receptor (unknown origin) by cell-based ELISA
Integrin alpha-V/beta-1 [14] = target: T3, Integrin alpha-V/beta-1; experiment: Antagonist activity at alphavbeta1 integrin receptor (unknown origin) by cell-based ELISA

Chain of Integrin alpha-IIb/beta-3 (Homo sapiens, UniProt P05106+P08514) (P05106 27-788 limits assumed): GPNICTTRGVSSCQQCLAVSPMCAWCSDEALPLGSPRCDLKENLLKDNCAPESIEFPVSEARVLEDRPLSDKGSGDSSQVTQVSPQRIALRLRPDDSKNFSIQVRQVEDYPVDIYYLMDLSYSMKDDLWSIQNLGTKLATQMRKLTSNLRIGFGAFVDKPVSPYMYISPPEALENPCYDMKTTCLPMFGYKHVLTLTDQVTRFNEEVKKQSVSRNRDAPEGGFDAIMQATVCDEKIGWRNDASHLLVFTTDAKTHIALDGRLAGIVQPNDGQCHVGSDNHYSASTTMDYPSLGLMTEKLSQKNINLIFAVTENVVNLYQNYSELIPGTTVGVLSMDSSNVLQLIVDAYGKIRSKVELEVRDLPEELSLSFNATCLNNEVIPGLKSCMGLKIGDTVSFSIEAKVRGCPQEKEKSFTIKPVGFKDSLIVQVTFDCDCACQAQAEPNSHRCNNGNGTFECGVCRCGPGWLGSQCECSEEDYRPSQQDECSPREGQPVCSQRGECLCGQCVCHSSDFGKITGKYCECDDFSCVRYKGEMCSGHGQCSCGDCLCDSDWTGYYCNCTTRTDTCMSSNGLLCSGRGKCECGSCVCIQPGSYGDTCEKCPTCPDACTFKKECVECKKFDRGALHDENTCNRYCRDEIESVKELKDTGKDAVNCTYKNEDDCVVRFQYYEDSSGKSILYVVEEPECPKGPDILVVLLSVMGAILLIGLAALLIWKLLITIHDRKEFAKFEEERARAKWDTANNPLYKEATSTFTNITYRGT
Chain of Integrin alpha-IIb/beta-3 (Homo sapiens, UniProt P05106+P08514) (P08514 32-887 limits assumed): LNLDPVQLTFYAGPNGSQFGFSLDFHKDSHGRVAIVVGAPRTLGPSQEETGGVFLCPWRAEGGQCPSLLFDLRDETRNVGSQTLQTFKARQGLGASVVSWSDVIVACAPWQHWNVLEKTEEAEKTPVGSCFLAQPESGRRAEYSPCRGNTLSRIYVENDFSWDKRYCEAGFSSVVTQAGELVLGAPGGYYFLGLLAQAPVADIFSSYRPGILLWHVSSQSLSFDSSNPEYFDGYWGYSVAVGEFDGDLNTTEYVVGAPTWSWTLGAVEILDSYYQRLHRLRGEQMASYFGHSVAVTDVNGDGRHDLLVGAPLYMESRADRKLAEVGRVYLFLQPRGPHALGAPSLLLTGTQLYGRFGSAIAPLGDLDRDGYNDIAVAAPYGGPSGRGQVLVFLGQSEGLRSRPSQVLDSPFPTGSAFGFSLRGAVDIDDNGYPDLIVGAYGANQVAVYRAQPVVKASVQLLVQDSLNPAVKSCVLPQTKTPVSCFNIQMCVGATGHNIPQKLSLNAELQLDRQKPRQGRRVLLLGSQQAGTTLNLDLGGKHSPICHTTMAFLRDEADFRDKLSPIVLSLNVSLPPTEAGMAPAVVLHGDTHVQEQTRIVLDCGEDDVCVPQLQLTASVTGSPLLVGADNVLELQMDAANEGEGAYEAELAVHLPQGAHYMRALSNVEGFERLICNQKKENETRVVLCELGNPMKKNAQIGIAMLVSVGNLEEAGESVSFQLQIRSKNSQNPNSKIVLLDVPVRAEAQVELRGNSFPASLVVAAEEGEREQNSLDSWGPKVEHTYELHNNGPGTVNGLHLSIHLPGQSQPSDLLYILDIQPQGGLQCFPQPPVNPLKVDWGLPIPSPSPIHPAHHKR
Chain of Integrin alpha-IIb/beta-3 (Homo sapiens, UniProt P05106+P08514) (P08514 891-1039 limits assumed): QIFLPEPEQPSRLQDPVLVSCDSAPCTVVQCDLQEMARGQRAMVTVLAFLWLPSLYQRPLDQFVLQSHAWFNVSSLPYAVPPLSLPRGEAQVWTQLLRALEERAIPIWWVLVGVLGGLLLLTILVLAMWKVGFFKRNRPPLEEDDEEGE
T1 sequence (P05106 27-788 limits assumed): as the sequence (P05106 27-788 limits assumed) above
T1 sequence (P06756 31-889 limits assumed): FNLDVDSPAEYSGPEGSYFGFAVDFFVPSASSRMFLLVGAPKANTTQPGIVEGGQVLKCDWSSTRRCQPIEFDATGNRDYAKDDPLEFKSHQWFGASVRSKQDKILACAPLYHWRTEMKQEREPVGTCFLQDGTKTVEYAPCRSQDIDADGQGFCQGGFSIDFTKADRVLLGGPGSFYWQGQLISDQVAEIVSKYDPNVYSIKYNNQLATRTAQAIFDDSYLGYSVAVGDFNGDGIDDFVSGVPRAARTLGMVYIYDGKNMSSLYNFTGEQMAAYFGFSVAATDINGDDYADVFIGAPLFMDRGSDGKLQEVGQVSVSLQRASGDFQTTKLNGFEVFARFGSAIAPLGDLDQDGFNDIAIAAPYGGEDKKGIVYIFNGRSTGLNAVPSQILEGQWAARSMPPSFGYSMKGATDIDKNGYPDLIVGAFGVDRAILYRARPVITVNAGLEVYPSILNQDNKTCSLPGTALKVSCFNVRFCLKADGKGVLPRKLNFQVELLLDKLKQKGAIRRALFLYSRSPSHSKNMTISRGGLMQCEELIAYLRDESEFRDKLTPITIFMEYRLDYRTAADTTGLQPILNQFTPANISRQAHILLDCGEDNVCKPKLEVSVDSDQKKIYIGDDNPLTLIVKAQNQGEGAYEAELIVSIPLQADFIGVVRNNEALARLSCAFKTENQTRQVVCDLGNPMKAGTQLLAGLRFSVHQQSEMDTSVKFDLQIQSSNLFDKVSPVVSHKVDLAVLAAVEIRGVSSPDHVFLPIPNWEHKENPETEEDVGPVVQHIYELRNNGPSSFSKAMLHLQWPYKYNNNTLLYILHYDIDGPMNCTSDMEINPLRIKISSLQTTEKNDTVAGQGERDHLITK
T1 sequence (P06756 891-1048 limits assumed): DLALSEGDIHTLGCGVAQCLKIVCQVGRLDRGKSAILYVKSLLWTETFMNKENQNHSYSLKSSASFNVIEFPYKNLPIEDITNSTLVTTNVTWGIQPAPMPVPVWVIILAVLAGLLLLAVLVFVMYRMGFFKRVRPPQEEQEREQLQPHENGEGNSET
T3 sequence (P05556 21-798 limits assumed): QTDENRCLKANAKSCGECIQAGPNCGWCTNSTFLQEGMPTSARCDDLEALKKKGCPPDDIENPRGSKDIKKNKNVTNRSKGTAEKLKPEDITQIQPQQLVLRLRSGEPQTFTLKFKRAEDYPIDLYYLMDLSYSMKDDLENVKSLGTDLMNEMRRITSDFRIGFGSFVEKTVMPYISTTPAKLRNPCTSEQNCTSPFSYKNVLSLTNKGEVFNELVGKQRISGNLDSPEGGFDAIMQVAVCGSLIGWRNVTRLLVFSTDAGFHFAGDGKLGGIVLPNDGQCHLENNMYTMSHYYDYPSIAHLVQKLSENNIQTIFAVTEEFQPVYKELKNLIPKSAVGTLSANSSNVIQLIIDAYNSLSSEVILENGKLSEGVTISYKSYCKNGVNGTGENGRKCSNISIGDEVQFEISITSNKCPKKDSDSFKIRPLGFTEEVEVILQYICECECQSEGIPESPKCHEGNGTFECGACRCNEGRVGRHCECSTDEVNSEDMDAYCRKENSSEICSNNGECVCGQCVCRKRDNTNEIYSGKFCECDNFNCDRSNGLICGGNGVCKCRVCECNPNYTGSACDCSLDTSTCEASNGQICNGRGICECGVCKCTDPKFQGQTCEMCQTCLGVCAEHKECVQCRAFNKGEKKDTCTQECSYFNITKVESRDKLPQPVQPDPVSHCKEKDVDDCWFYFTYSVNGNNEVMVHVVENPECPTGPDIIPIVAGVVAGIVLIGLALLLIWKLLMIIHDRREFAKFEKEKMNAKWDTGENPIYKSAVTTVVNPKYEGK
T3 sequence (P06756 31-889 limits assumed): as the sequence (P06756 31-889 limits assumed) above
T3 sequence (P06756 891-1048 limits assumed): as the sequence (P06756 891-1048 limits assumed) above
T4 sequence (P05556 21-798 limits assumed): as the sequence (P05556 21-798 limits assumed) above
T4 sequence (P08648 42-894 limits assumed): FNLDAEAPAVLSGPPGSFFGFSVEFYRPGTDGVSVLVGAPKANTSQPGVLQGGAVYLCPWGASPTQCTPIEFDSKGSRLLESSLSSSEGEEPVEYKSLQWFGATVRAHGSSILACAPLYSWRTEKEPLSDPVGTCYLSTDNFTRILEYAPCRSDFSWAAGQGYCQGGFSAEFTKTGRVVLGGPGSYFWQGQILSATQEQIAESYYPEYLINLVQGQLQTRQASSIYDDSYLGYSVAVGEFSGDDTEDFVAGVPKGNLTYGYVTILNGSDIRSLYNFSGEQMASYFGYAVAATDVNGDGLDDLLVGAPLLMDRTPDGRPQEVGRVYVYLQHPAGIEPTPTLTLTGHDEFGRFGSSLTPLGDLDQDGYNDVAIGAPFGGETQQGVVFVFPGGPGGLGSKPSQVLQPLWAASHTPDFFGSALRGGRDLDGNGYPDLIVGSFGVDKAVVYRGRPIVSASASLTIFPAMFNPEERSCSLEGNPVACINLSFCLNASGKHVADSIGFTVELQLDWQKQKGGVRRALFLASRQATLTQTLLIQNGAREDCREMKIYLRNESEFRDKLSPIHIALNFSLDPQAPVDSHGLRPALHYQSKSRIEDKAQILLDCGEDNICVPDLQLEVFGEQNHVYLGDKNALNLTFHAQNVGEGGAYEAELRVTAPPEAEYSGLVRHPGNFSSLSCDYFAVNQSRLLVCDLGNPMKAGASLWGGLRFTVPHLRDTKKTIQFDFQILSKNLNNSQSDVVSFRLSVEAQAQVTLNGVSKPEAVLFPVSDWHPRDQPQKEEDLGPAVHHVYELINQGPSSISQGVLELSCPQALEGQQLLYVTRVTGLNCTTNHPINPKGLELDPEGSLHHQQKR
T4 sequence (P08648 895-1049 limits assumed): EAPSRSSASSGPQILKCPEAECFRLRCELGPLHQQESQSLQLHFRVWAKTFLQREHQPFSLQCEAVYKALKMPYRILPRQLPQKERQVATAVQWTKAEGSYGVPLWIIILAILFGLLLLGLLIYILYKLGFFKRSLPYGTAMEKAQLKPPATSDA

Work on `O=C(O)CC1CC(CNC(=O)CCCNc2ccccn2)=CCc2ccccc21` (stereo unspecified) yielded an IC50 (Integrin alpha-V/beta-3 [1]) of 2 nM and an IC50 (Integrin alpha-V/beta-5 [2]) of 1 nM.

Molecule `O=C(O)C[C@H](NC(=O)CNC(=O)c1cc(O)cc(NC2=NCC(O)CN2)c1)c1cc(Cl)cc(Br)c1O` (stereo partly specified) has an IC50 [3] of 257 nM, an IC50 [4] of 18.1 nM and an IC50 (Integrin alpha-V/beta-6) of 11.7 nM. It also gave an IC50 (Integrin alpha-V/beta-1 [5]) of 10.4 nM, an IC50 (Integrin alpha-5/beta-1 [6]) of 316 nM and an IC50 (Integrin alpha-V/beta-8) of 1.71 nM. It also gave an IC50 (Integrin alpha-V/beta-3 [7]) of 1.6 nM.

With `O=C(O)C[C@H](NC(=O)CNC(=O)c1cncc(N=C2NCC(O)CN2)c1)c1cc(Cl)cc(Br)c1O` (stereo partly specified) the IC50 [3] was 380 nM, the IC50 [4] was 1.5 nM and the IC50 (Integrin alpha-V/beta-6) was 1.13 nM. It also gave an IC50 (Integrin alpha-V/beta-1 [5]) of 1.59 nM, an IC50 (Integrin alpha-5/beta-1 [6]) of 64 nM and an IC50 (Integrin alpha-V/beta-8) of 0.65 nM.

For `N=C(N)NCc1cccc(-c2ccc(C(=O)NC[C@H](NS(=O)(=O)c3ccccc3)C(=O)O)s2)c1`, the IC50 [3] was 0.3 nM and the IC50 (Integrin alpha-V/beta-3 [8]) was 0.033 nM.

With `O=C(NC[C@H](NS(=O)(=O)c1c(Cl)cccc1Cl)C(=O)O)c1ccc2c(cnn2CCCNc2ncc[nH]2)c1` the IC50 (Integrin alpha-V/beta-3 [9]) was 8.5 nM and the IC50 [10] was 12 nM.

For `C=Cc1cnc(NC[C@@H]2C[C@]3(CC(C(=O)NC[C@H](NS(=O)(=O)c4c(C)cc(C)cc4C)C(=O)O)=NO3)CN2C(=O)OCCCC)[nH]1`, the IC50 (Integrin alpha-V/beta-3 [1]) was 87 nM and the IC50 (Integrin alpha-5/beta-1 [11]) was 0.39 nM.

For `N=C(N)NCCC[C@H](NC(=O)OCc1ccccc1)[C@H]1CC[C@H](C(=O)NC[C@H](NC(=O)OCc2ccccc2)C(=O)O)O1`, the IC50 [3] was 67 nM and the IC50 (Integrin alpha-V/beta-3 [1]) was 52 nM.

`N=C(N)NCCCc1cn(CC(=O)N[C@@H](CC(=O)O)c2ccccc2)nn1` gave an IC50 (Integrin alpha-V/beta-3 [1]) of 1.35 nM and an IC50 (Integrin alpha-V/beta-5 [2]) of 1.02 nM.

Work on `O=C(N[C@@H](CNC(=O)c1ccc(CN(Cc2nc3ccccc3[nH]2)C(=O)NC2CCCCC2)cc1)C(=O)O)OCc1ccccc1` yielded an IC50 (Integrin alpha-V/beta-3 [1]) of 3.2 nM, an IC50 (Integrin alpha-V/beta-5 [2]) of 1.7 nM and an IC50 (Integrin alpha-5/beta-1 [11]) of 421 nM.

Work on `Cc1cc(C)c(S(=O)(=O)N[C@@H](CNC(=O)c2ccc(-c3cccc(CN=C(N)N)c3)s2)C(=O)O)c(C)c1` yielded an IC50 [3] of 0.2 nM, an IC50 (Integrin alpha-V/beta-3 [8]) of 3.5 nM and an IC50 (Integrin alpha-V/beta-5 [12]) of 60 nM. For the same molecule, the IC50 (Integrin alpha-5/beta-1 [13]) was 20 nM.

`N=C(N)NCCC[C@@H]1NC(=O)CNC(=O)[C@H](CC(=O)O)N[C@H](C(=O)O)C[S+]([O-])CC(=O)N[C@H](Cc2ccc(O)cc2)C1=O` (stereo partly specified) showed an IC50 [3] of 1.5 nM.

For `Cc1cc(C)c(S(=O)(=O)N[C@@H](CNC(=O)c2ccc3c(cnn3CCCNc3ncc[nH]3)c2)C(=O)O)c(C)c1`, the IC50 (Integrin alpha-V/beta-3 [9]) was 2.3 nM and the IC50 [10] was 21 nM.

For `N=C(N)NCCCCC(=O)NCC(=O)NC(CC(=O)O)c1cccnc1` (stereo unspecified), the IC50 [3] was 9 nM, the IC50 (Integrin alpha-V/beta-3 [1]) was 10 nM and the IC50 (Integrin alpha-V/beta-3 [8]) was 120 nM. For the same molecule, the IC50 (Integrin alpha-V/beta-5 [12]) was 23 nM, the IC50 (Integrin alpha-5/beta-1 [13]) was 70000 nM and the IC50 (Integrin alpha-V/beta-1 [14]) was 317 nM.
